# In patent publication US8357676B2, “Ansamycin formulations and methods of use thereof” (Infinity Discovery, Inc., priority 2006, dated 2013):
# Where two headings read alike, the source gives them in different places.
# Columns and labels:
# [1] = In vitro dissolution of amorphous solid dispersions in simulated intestinal fluid at 37° C.; format: physicochemical
# Method: […] To each vial was added simulated intestinal fluid (5 mL) and each was shaken at 37° C. […] The samples were then diluted in MeOH and tested using UV method for solution concentration.
# [2] = system: H1975, a non-small cell lung cancer cell line; assay: H1975 mouse xenograph tumor model; format: in vivo, Nu/Nu mice; conditions: 5% DMSO, 75% NS, oral gavage every other day
# Method: In the first study, H1975, a non-small cell lung cancer cell line which contains L858R and T790M mutations in EGFR, a client protein for HSP90 was utilized. 5-6 week old Nu/Nu mice were implanted with 10×10e6H1975 cells. Dosing commenced after implanted cells reached ˜150 mm3. Dosing was by oral gavage and the dosing schedule was every other day with vehicle (20% PGHS, 5% DMSO, 75% NS), and 75 mg/kg, and 100 mg/kg 17-AG in vehicle.
# [3] = Supersaturated levels of 17-AG in SIF pH 6.8 with PVP (DMSO stock diluted 1:100); format: physicochemical; conditions: for 17-AG Supersaturated Concentration: 37° C., average values
# Method: Supersaturated levels of 17-AG was measured by adding 17-AG DMSO stock solutions (10, 50, 100, & 200 mg/ml) at a 1:100 dilution to SIF pH 6.8 solutions containing 0%, 0.5%, 1%, 2.5%, & 5% PVP (w/v). […] Solutions were stirred in a dissolution apparatus (Paddle speed 150 RPM, 37° C.), and aliquots of each solution were removed at 15, 30, 60, 120, 240, 360, & 1320 minute time points. Sample aliquots were filtered (0.45 uM PVDF), diluted in SIF/MeOH and measured in triplicate on UV spectrometer. Representative data are found in FIG. 25 and FIG. 26.
# [4] = Equilibrium solubility in SIF; format: physicochemical; conditions: for solubility: 37 °C; for Crystalline 17-AG Equilibrium Solubility: average values
# Method: Solutions were placed at 37° C., and sample aliquots were removed at 24, 48, 72, & 96 hours. Sample aliquots were filtered (0.45 uM PVDF), diluted in SIF/MeOH and measured in triplicate on UV spectrometer.
# [5] = system: H1650 lung adenocarcinoma cell line; assay: H1650 mouse xenograph tumor model; format: in vivo, Nu/Nu mice; conditions: 50, 75 and 100 mg/kg 17-AG in 15% PVP, 5% EtOH, 80% PG, oral gavage every day
# Method: In the second study, H1650 lung adenocarcinoma cell line which contains a mutant form of EGFR (Del E746-A750) was utilized. 5-6 week old Nu/Nu mice were implanted with 10×10e6H1650 cells. Dosing commenced after implanted cells reached ˜100 mm3. Dosing was by oral gavage and the dosing schedule was every day with vehicle (15% PVP, 5% EtOH, 80% PG), and 50 mg/kg, 75 mg/kg, and 100 mg/kg 17-AG in vehicle.
# [6] = In vivo exposure of various oral formulations of 17-AG, single oral dose; conditions: female beagle dogs
# Method: The oral bioavailability of various formulations of the compound 17-AG was investigated by making various oral formulations, dosing beagle dogs and measuring 17-AG levels in blood plasma at various time points following a single oral dose. In addition, the effect of PVP on enhancing exposure was investigated by its addition to many of the tested formulations.
# In brief, different crystalline, solvated, and amorphous forms of 17-AG were dosed either as filled capsules or as suspensions. In addition, various 17-AG solutions utilizing a range of different organic, anionic, & non-ionic components were dosed by oral gavage.
# The crystalline, solvated, and amorphous forms of 17-AG were made as previously described and blended with either anhydrous lactose or PVP in a Turbula blender for 15 minutes. […]
# The nanosuspension was made by levigating crystalline 17-AG by high shear in a microfluidizer (Microfluidics Corp, Model: M-110L) for 10-20 minutes in Tween-80. Mean particle size (d50: […]) was measured by laser light diffraction (Malvern Corp, Mastersizer 2000).
# Blood was collected pre-dose, 15, 30 minutes, 1, 2, 4, and 8 hours post-dose into tubes containing sodium heparin. […] Isolated plasma was saved in labeled screw cap freezer vials or eppendorf tubes and stored frozen (−70° C.) until analyzed for plasma 17-AG levels. […]
# [7] = Oral bioavailability of amorphous 17-AG/PVP dispersion vs crystalline 17-AG, single oral capsule dose; format: in vivo; conditions: 15 mg/kg, beagle dogs
# Method: A 12% 17-AG/PVP (w/w) dispersion was made utilizing rotary evaporation and characterized for purity, residual solvent level, and amorphous content as described, filled into HPMC capsules and dosed into dogs at a level of 15 mg/kg. Blood was collected pre-dose, at 15 minutes, at 30 minutes, 1 hour, 2 hours, 4 hours, 6 hours, 12 hours, and 24 hours post dose into tubes containing sodium heparin. Collected blood samples were immediately placed on wet ice and refrigerated centrifuge for isolation of plasma within 30 min of collection. Isolated plasma was saved in labeled screw cap freezer vials or eppendorf tubes and stored frozen (−70° C.) until analyzed for plasma 17-AG levels. The design of the study is as follows. A single group of dogs consisting of 2 males & 2 females was utilized for dosing, with a week washout in between each dose.
# [8] = 12% load analog in PVP K-30 amorphous dispersion, target conc 2 mg/mL, SIF 37° C., t = 5 min
# [9] = 12% load analog in PVP K-30 dispersion, SIF 37° C., t = 5 min
# [10] = simulated intestinal fluid (SIF), pH 6.8, fassgf or other biorelevant, thermodynamic from solid, read-out: Eq. Solubility of active
compound,measurement,setting,value
"CO[C@H]1/C=C\C=C(/C)C(=O)NC2=CC(=O)C(N)=C(C[C@@H](C)C[C@H](OC)[C@H](O)[C@@H](C)/C=C(\C)[C@@H]1OC(N)=O)C2=O [17-AG, 17-amino-geldanamycin]",Supersaturated concentration of analog/polymer dispersions in SIF at 37° C. (t = 5 min),[1]; [8],0.712 mg/ml
same,Fold increase relative to equilibrium solubility,[1]; [9],200 x
same,reduction in tumor volume as compared to vehicle treated animals,[2]; 75 mg/kg 17-AG in 20% PGHS,~35%
same,reduction in tumor volume as compared to vehicle treated animals,[2]; 100 mg/kg 17-AG in 20% PGHS,~70%
same,time at which 17-AG starts to precipitate out,[3]; 1.0 mg/ml solution in 5% PVP,120 min
same,17-AG Supersaturated Concentration,"[3]; SIF pH 6.8, 0% PVP",0.5 mg/mL
same,17-AG Supersaturated Concentration,"[3]; SIF pH 6.8, 0.5% PVP",0.6 mg/mL
same,17-AG Supersaturated Concentration,"[3]; SIF pH 6.8, 1.0% PVP",0.7 mg/mL
same,increase of degree of supersaturation of 17-AG,"[3]; SIF pH 6.8, 5% PVP vs 0% PVP",~2 fold
same,17-AG Supersaturated Concentration,"[3]; SIF pH 6.8, 5.0% PVP",0.9 mg/mL
same,time at which 17-AG starts to precipitate and come out of solution,[3]; SIF without PVP,approximately 120 minutes
same,solubility,"[4]; simulated intestinal fluid (SIF), pH 6.8, fassgf or other biorelevant, thermodynamic from solid",4 µg/mL
same,solubility thermodynamic,"[4]; simulated intestinal fluid (SIF), pH 6.8, fassgf or other biorelevant, thermodynamic from solid, SIF, 37° C., read-out: Equilibrium solubility of 17-AG in SIF @ 37° C.",4 µg/mL
same,maximum reduction in tumor volume as compared to vehicle treated animals,[5],62%
"COC1CC(C)CC2=C(N)C(=O)C=C(NC(=O)C(C)=CC=CC(OC)C(OC(N)=O)C(C)=CC(C)C1=O)C2=O (stereo not drawn) [11-oxo-17-AG, 11-oxo-17-aminogeldanamycin]",Supersaturated concentration of analog/polymer dispersions in SIF at 37° C. (t = 5 min),[1]; [8],0.395 mg/ml
same,Fold increase relative to equilibrium solubility,[1]; [9],0 x
same,Eq. Solubility of active,[4]; pH 6.8,330 µg/mL
"CO[C@H]1C[C@H](C)CC2=C(N)C(=O)C=C(NC(=O)/C(C)=C/C=C\[C@H](OC)[C@@H](OC(N)=O)/C(C)=C/[C@H](C)C1OC(C)=O)C2=O (stereo partly drawn) [11-acetyl-17-AG, 11-acetyl-17-aminogeldanamycin]",Supersaturated concentration of analog/polymer dispersions in SIF at 37° C. (t = 5 min),[1]; [8],0.167 mg/ml
same,Fold increase relative to equilibrium solubility,[1]; [9],2 x
same,solubility,[4]; [10],88 µg/mL
"CO[C@H]1/C=C\C=C(/C)C(=O)NC2=CC(=O)C(NCCF)=C(C[C@@H](C)C[C@H](OC)[C@H](O)[C@@H](C)/C=C(\C)[C@@H]1OC(N)=O)C2=O [17-fluoroethyl-AG, 17-(fluoroethyl)aminogeldanamycin]",Supersaturated concentration of analog/polymer dispersions in SIF at 37° C. (t = 5 min),[1]; [8],0.234 mg/ml
same,Fold increase relative to equilibrium solubility,[1]; [9],5 x
same,solubility,[4]; [10],40 µg/mL
"CO[C@H]1/C=C\C=C(/C)C(=O)NC2=CC(=O)C(N)=C(C[C@@H](C)C[C@H](OC)[C@H](O)[C@@H](C)/C=C(\C)[C@@H]1OC(N)=O)C2=O [EtOAc Solvate of 17-AG, 17-amino-geldanamycin]",exposure after oral dosing (in words),[6],low exposure
"CO[C@H]1/C=C\C=C(/C)C(=O)NC2=CC(=O)C(NCc3ccccc3)=C(C[C@@H](C)C[C@H](OC)[C@H](O)[C@@H](C)/C=C(\C)[C@@H]1OC(N)=O)C2=O [17-benzyl-AG, 17-benzylaminogeldanamycin]",Supersaturated concentration of analog/polymer dispersions in SIF at 37° C. (t = 5 min),[1],0.165 mg/ml (10x)
same,Supersaturated concentration in SIF at 5 min,"[1]; 12% load analog in PVP K-30 dispersion, SIF 37° C., t = 5 min, the values are: supersaturated concentration in SIF at 5 min",0.165 mg/mL
same,solubility,[4]; [10],15 µg/mL
"CO[C@H]1/C=C\C=C(/C)C(=O)NC2=CC(=O)C(NCC3CC3)=C(C[C@@H](C)C[C@H](OC)[C@H](O)[C@@H](C)/C=C(\C)[C@@H]1OC(N)=O)C2=O [17-cyclopropylmethyl-AG, 17-cyclopropylmethylaminogeldanamycin]",Supersaturated concentration of analog/polymer dispersions in SIF at 37° C. (t = 5 min),[1]; [8],0.0573 mg/ml
same,Fold increase relative to equilibrium solubility,[1]; [9],2 x
same,solubility,[4]; [10],34 µg/mL
"CO[C@H]1/C=C\C=C(/C)C(=O)NC2=CC(=O)C(N3CCC3)=C(C[C@@H](C)C[C@H](OC)[C@H](O)[C@@H](C)/C=C(\C)[C@@H]1OC(N)=O)C2=O [17-azetidinyl-G, 17-azetidinylgeldanamycin]",Supersaturated concentration of analog/polymer dispersions in SIF at 37° C. (t = 5 min),[1]; [8],0.167 mg/ml
same,Fold increase relative to equilibrium solubility,[1]; [9],0 x
same,solubility,[4]; [10],140 µg/mL
"CO[C@H]1/C=C\C=C(/C)C(=O)NC2=CC(=O)C(N)=C(C[C@@H](C)C[C@H](OC)[C@H](O)[C@@H](C)/C=C(\C)[C@@H]1OC(N)=O)C2=O [amorphous 17-AG, 17-amino-geldanamycin]",exposure after oral dosing (in words),[6],significant exposure
"CO[C@H]1/C=C\C=C(/C)C(=O)NC2=CC(=O)C(N)=C(C[C@@H](C)C[C@H](OC)[C@H](O)[C@@H](C)/C=C(\C)[C@@H]1OC(N)=O)C2=O [Crystalline 17-AG, 17-amino-geldanamycin]",Crystalline 17-AG Equilibrium Solubility,"[4]; SIF pH 6.8, 0% PVP, 37° C.",4.1 µg/mL
same,Crystalline 17-AG Equilibrium Solubility,"[4]; SIF pH 6.8, 0.5% PVP, 37° C.",5.9 µg/mL
same,Crystalline 17-AG Equilibrium Solubility,"[4]; SIF pH 6.8, 1.0% PVP, 37° C.",6.5 µg/mL
same,Crystalline 17-AG Equilibrium Solubility,"[4]; SIF pH 6.8, 2.5% PVP, 37° C.",8.7 µg/mL
same,increase of equilibrium solubility of crystalline 17-AG,"[4]; SIF pH 6.8, 5% PVP vs 0% PVP",~3 fold
same,Crystalline 17-AG Equilibrium Solubility,"[4]; SIF pH 6.8, 5.0% PVP, 37° C.",11.2 µg/mL
same,exposure / oral bioavailability (in words),[7]; single oral capsule,very low oral bioavailability
same,Plasma levels of 17-AG following dosing,[7]; uncoated HPMC capsule,below quantifiable limits
"CO[C@H]1/C=C\C=C(/C)C(=O)NC2=CC(=O)C(NC(C)=O)=C(C[C@@H](C)C[C@H](OC)[C@H](O)[C@@H](C)/C=C(\C)[C@@H]1OC(N)=O)C2=O [17-acetyl-AG, 17-acetylgeldanamycin]",Supersaturated concentration of analog/polymer dispersions in SIF at 37° C. (t = 5 min),[1]; [8],1.568 mg/ml
same,Fold increase relative to equilibrium solubility,[1]; [9],≥ 5 x
same,solubility,[4]; [10],350 µg/mL
